Results from the kinase profiling compilation of Christmann-Franck et al. (2016).

biological target: HIPK3 (human) (UniProt Q9H422); experiment: radiometric filter-binding kinase assay, Kinase HotSpot; conditions: compound 0.5 µM; ATP 10 µM

Row | SMILES | residual activity [%]
1 | COc1cc2c(cc1OC)-c1[nH]nc(Nc3cccc(F)c3)c1C2 | 100
2 | Cn1cc(/C=C2\C(=O)Nc3ccc(S(N)(=O)=O)cc32)c2ccccc21 | 105
3 | COc1cccc(-c2cc(=O)c3ccccc3o2)c1N | 101
4 | O=C1NC(=O)c2cc(Nc3ccc(F)cc3)c(Nc3ccc(F)cc3)cc21 | 95.3
5 | N#CCCc1ccc2c(c1)-c1[nH]c3ccc([N+](=O)[O-])cc3c1CC(=O)N2 | 104

biological target: MAP2K1 (human) (UniProt Q02750); experiment: as above; conditions: compound 0.5 µM; ATP 10 µM
Sequence (Q02750 whole entry, looked up): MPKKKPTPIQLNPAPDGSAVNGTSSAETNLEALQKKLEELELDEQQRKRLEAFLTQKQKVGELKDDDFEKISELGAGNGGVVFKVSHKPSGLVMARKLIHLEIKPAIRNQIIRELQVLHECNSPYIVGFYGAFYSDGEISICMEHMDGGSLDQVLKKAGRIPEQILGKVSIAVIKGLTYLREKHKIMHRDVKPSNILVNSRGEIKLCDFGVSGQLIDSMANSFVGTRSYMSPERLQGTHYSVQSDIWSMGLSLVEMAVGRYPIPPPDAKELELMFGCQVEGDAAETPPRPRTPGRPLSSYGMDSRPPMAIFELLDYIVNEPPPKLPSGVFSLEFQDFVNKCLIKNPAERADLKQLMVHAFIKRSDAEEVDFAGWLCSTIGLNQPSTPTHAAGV

Row | SMILES | residual activity [%]
6 | COc1cc2c(cc1OC)-c1[nH]nc(Nc3cccc(F)c3)c1C2 | 90.1
7 | Cn1cc(/C=C2\C(=O)Nc3ccc(S(N)(=O)=O)cc32)c2ccccc21 | 63.6
8 | COc1cccc(-c2cc(=O)c3ccccc3o2)c1N | 69.1
9 | O=C1NC(=O)c2cc(Nc3ccc(F)cc3)c(Nc3ccc(F)cc3)cc21 | 103
10 | N#CCCc1ccc2c(c1)-c1[nH]c3ccc([N+](=O)[O-])cc3c1CC(=O)N2 | 97.1

biological target: STK39 (human) (UniProt Q9UEW8); experiment: as above; conditions: compound 0.5 µM; ATP 10 µM

Row | SMILES | residual activity [%]
11 | COc1cc2c(cc1OC)-c1[nH]nc(Nc3cccc(F)c3)c1C2 | 105
12 | Cn1cc(/C=C2\C(=O)Nc3ccc(S(N)(=O)=O)cc32)c2ccccc21 | 79.3
13 | COc1cccc(-c2cc(=O)c3ccccc3o2)c1N | 86.8
14 | O=C1NC(=O)c2cc(Nc3ccc(F)cc3)c(Nc3ccc(F)cc3)cc21 | 89.2
15 | N#CCCc1ccc2c(c1)-c1[nH]c3ccc([N+](=O)[O-])cc3c1CC(=O)N2 | 96.4

biological target: STK25 (human) (UniProt O00506); experiment: as above; conditions: compound 0.5 µM; ATP 10 µM
Sequence (O00506 whole entry, looked up): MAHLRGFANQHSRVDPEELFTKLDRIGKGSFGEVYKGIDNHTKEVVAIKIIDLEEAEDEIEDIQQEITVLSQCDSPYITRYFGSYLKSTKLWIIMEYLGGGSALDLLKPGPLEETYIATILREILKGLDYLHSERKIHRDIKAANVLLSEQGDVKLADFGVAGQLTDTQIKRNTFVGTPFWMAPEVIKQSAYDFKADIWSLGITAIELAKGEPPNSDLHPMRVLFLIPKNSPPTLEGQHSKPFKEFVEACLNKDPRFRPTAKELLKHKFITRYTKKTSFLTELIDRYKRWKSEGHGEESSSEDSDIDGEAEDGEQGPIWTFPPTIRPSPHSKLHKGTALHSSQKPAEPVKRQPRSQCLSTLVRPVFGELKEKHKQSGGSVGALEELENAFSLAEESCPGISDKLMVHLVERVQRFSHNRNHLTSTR

Row | SMILES | residual activity [%]
16 | COc1cc2c(cc1OC)-c1[nH]nc(Nc3cccc(F)c3)c1C2 | 103
17 | Cn1cc(/C=C2\C(=O)Nc3ccc(S(N)(=O)=O)cc32)c2ccccc21 | 83.5
18 | COc1cccc(-c2cc(=O)c3ccccc3o2)c1N | 106
19 | O=C1NC(=O)c2cc(Nc3ccc(F)cc3)c(Nc3ccc(F)cc3)cc21 | 101
20 | N#CCCc1ccc2c(c1)-c1[nH]c3ccc([N+](=O)[O-])cc3c1CC(=O)N2 | 91.1

biological target: STK3 (human) (UniProt Q13188); experiment: as above; conditions: compound 0.5 µM; ATP 10 µM
Sequence (Q13188 whole entry, looked up): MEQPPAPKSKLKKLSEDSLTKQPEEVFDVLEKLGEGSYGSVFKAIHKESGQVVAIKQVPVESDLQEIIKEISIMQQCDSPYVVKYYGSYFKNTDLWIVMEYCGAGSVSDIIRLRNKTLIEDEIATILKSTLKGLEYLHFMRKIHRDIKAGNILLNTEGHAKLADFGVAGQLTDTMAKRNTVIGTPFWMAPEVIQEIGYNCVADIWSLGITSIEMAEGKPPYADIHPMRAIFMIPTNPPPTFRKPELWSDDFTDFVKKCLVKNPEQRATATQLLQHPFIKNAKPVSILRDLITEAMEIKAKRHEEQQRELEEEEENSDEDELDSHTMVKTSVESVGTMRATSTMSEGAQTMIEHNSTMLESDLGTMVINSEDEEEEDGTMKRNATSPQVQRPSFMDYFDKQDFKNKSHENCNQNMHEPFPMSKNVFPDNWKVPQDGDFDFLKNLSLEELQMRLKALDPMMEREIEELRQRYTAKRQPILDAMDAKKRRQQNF

Row | SMILES | residual activity [%]
21 | COc1cc2c(cc1OC)-c1[nH]nc(Nc3cccc(F)c3)c1C2 | 93
22 | Cn1cc(/C=C2\C(=O)Nc3ccc(S(N)(=O)=O)cc32)c2ccccc21 | 23.4
23 | COc1cccc(-c2cc(=O)c3ccccc3o2)c1N | 97.1
24 | O=C1NC(=O)c2cc(Nc3ccc(F)cc3)c(Nc3ccc(F)cc3)cc21 | 90.7
25 | N#CCCc1ccc2c(c1)-c1[nH]c3ccc([N+](=O)[O-])cc3c1CC(=O)N2 | 40.9

biological target: EPHA2 (human) (UniProt P29317); experiment: as above; conditions: compound 0.5 µM; ATP 10 µM

Row | SMILES | residual activity [%]
26 | COc1cc2c(cc1OC)-c1[nH]nc(Nc3cccc(F)c3)c1C2 | 93.8
27 | Cn1cc(/C=C2\C(=O)Nc3ccc(S(N)(=O)=O)cc32)c2ccccc21 | 93
28 | COc1cccc(-c2cc(=O)c3ccccc3o2)c1N | 105
29 | O=C1NC(=O)c2cc(Nc3ccc(F)cc3)c(Nc3ccc(F)cc3)cc21 | 94.3
30 | N#CCCc1ccc2c(c1)-c1[nH]c3ccc([N+](=O)[O-])cc3c1CC(=O)N2 | 93.6

biological target: PAK4 (human) (UniProt O96013); experiment: as above; conditions: compound 0.5 µM; ATP 10 µM

Row | SMILES | residual activity [%]
31 | COc1cc2c(cc1OC)-c1[nH]nc(Nc3cccc(F)c3)c1C2 | 89.9
32 | Cn1cc(/C=C2\C(=O)Nc3ccc(S(N)(=O)=O)cc32)c2ccccc21 | 86.2
33 | COc1cccc(-c2cc(=O)c3ccccc3o2)c1N | 88.1
34 | O=C1NC(=O)c2cc(Nc3ccc(F)cc3)c(Nc3ccc(F)cc3)cc21 | 95.1
35 | N#CCCc1ccc2c(c1)-c1[nH]c3ccc([N+](=O)[O-])cc3c1CC(=O)N2 | 86.4

biological target: CDK6 CCND1 (human) (UniProt Q00534+P24385); experiment: as above; conditions: compound 0.5 µM; ATP 10 µM
Sequence (P24385 whole entry, looked up): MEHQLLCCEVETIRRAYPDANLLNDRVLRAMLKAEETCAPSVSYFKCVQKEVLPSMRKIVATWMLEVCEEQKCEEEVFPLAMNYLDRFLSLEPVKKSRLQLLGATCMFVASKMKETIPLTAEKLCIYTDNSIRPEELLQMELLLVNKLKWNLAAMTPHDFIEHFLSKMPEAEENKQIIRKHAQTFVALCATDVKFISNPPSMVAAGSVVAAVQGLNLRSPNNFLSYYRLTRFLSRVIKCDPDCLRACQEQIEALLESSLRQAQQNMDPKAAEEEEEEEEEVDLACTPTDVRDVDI
Sequence (Q00534 whole entry, looked up): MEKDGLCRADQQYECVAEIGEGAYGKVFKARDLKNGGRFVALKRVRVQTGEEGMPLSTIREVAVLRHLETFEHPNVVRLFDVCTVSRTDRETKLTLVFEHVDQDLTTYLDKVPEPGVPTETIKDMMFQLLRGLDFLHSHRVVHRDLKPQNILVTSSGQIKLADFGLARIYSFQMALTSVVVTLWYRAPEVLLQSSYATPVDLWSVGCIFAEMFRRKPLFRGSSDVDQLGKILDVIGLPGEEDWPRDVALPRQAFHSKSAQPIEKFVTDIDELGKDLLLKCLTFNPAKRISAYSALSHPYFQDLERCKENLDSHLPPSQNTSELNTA

Row | SMILES | residual activity [%]
36 | COc1cc2c(cc1OC)-c1[nH]nc(Nc3cccc(F)c3)c1C2 | 92.9
37 | Cn1cc(/C=C2\C(=O)Nc3ccc(S(N)(=O)=O)cc32)c2ccccc21 | 82.4
38 | COc1cccc(-c2cc(=O)c3ccccc3o2)c1N | 95.5
39 | O=C1NC(=O)c2cc(Nc3ccc(F)cc3)c(Nc3ccc(F)cc3)cc21 | 99
40 | N#CCCc1ccc2c(c1)-c1[nH]c3ccc([N+](=O)[O-])cc3c1CC(=O)N2 | 6.79

biological target: CAMKK1 (human) (UniProt Q8N5S9); experiment: as above; conditions: compound 0.5 µM; ATP 10 µM
Sequence (Q8N5S9 whole entry, looked up): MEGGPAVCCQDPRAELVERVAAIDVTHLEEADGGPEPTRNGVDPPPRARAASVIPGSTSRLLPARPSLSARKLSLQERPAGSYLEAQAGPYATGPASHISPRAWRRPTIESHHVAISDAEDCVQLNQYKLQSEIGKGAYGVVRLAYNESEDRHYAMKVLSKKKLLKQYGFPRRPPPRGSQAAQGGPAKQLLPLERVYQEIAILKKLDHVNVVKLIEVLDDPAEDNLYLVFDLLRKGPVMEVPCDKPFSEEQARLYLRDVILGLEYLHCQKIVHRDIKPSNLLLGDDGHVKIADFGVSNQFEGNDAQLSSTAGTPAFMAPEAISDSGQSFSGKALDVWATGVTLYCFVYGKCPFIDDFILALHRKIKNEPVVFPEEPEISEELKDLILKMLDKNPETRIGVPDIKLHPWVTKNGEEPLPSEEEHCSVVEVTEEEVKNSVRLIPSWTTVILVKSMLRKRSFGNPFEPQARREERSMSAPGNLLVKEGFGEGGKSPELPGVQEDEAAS

Row | SMILES | residual activity [%]
41 | COc1cc2c(cc1OC)-c1[nH]nc(Nc3cccc(F)c3)c1C2 | 81.5
42 | Cn1cc(/C=C2\C(=O)Nc3ccc(S(N)(=O)=O)cc32)c2ccccc21 | 44.9
43 | COc1cccc(-c2cc(=O)c3ccccc3o2)c1N | 98.8
44 | O=C1NC(=O)c2cc(Nc3ccc(F)cc3)c(Nc3ccc(F)cc3)cc21 | 90.2
45 | N#CCCc1ccc2c(c1)-c1[nH]c3ccc([N+](=O)[O-])cc3c1CC(=O)N2 | 86.7

biological target: ADRBK1 (human) (UniProt P25098); experiment: as above; conditions: compound 0.5 µM; ATP 10 µM

Row | SMILES | residual activity [%]
46 | COc1cc2c(cc1OC)-c1[nH]nc(Nc3cccc(F)c3)c1C2 | 93
47 | Cn1cc(/C=C2\C(=O)Nc3ccc(S(N)(=O)=O)cc32)c2ccccc21 | 100
48 | COc1cccc(-c2cc(=O)c3ccccc3o2)c1N | 99.6
49 | O=C1NC(=O)c2cc(Nc3ccc(F)cc3)c(Nc3ccc(F)cc3)cc21 | 104
50 | N#CCCc1ccc2c(c1)-c1[nH]c3ccc([N+](=O)[O-])cc3c1CC(=O)N2 | 96.4

biological target: NEK2 (human) (UniProt P51955); experiment: as above; conditions: compound 0.5 µM; ATP 10 µM

Row | SMILES | residual activity [%]
51 | COc1cc2c(cc1OC)-c1[nH]nc(Nc3cccc(F)c3)c1C2 | 93
52 | Cn1cc(/C=C2\C(=O)Nc3ccc(S(N)(=O)=O)cc32)c2ccccc21 | 89.1
53 | COc1cccc(-c2cc(=O)c3ccccc3o2)c1N | 86.1
54 | O=C1NC(=O)c2cc(Nc3ccc(F)cc3)c(Nc3ccc(F)cc3)cc21 | 96.3
55 | N#CCCc1ccc2c(c1)-c1[nH]c3ccc([N+](=O)[O-])cc3c1CC(=O)N2 | 92.7

biological target: ROCK2 (human) (UniProt O75116); experiment: as above; conditions: compound 0.5 µM; ATP 10 µM

Row | SMILES | residual activity [%]
56 | COc1cc2c(cc1OC)-c1[nH]nc(Nc3cccc(F)c3)c1C2 | 95.2
57 | Cn1cc(/C=C2\C(=O)Nc3ccc(S(N)(=O)=O)cc32)c2ccccc21 | 41
58 | COc1cccc(-c2cc(=O)c3ccccc3o2)c1N | 91.5
59 | O=C1NC(=O)c2cc(Nc3ccc(F)cc3)c(Nc3ccc(F)cc3)cc21 | 92.8
60 | N#CCCc1ccc2c(c1)-c1[nH]c3ccc([N+](=O)[O-])cc3c1CC(=O)N2 | 28.6

biological target: SIK2 (human) (UniProt Q9H0K1); experiment: as above; conditions: compound 0.5 µM; ATP 10 µM

Row | SMILES | residual activity [%]
61 | COc1cc2c(cc1OC)-c1[nH]nc(Nc3cccc(F)c3)c1C2 | 38.6
62 | Cn1cc(/C=C2\C(=O)Nc3ccc(S(N)(=O)=O)cc32)c2ccccc21 | 81.4
63 | COc1cccc(-c2cc(=O)c3ccccc3o2)c1N | 102
64 | O=C1NC(=O)c2cc(Nc3ccc(F)cc3)c(Nc3ccc(F)cc3)cc21 | 103
65 | N#CCCc1ccc2c(c1)-c1[nH]c3ccc([N+](=O)[O-])cc3c1CC(=O)N2 | 44.2

biological target: TNK2 (human) (UniProt Q07912); experiment: as above; conditions: compound 0.5 µM; ATP 10 µM
Sequence (Q07912 whole entry, looked up): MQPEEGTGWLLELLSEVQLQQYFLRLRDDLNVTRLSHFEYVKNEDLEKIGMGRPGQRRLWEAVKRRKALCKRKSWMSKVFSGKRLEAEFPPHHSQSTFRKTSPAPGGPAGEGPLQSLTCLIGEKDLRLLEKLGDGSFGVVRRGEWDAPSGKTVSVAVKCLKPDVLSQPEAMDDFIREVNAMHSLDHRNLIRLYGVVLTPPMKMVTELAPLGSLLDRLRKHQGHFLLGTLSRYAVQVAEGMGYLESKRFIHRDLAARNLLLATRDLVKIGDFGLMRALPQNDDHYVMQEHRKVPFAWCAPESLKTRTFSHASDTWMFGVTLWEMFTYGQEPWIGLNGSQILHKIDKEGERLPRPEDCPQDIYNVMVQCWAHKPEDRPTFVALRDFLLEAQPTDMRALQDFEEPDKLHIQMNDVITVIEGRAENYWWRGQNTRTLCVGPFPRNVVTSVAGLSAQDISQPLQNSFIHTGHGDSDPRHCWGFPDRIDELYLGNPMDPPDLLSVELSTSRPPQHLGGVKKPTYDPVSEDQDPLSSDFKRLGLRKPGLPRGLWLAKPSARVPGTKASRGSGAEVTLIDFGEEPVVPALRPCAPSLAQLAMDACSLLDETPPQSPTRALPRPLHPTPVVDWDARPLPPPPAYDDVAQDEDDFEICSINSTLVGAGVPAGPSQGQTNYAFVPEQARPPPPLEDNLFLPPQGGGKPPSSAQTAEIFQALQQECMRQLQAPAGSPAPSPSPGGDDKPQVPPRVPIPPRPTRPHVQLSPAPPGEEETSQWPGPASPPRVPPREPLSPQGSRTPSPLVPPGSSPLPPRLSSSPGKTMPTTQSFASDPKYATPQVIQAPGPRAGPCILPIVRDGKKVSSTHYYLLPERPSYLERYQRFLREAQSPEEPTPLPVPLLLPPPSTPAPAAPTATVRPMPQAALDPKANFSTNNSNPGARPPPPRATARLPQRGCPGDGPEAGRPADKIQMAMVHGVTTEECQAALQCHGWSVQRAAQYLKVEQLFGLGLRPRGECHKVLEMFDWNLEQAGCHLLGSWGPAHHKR

Row | SMILES | residual activity [%]
66 | COc1cc2c(cc1OC)-c1[nH]nc(Nc3cccc(F)c3)c1C2 | 15.1
67 | Cn1cc(/C=C2\C(=O)Nc3ccc(S(N)(=O)=O)cc32)c2ccccc21 | 72.3
68 | COc1cccc(-c2cc(=O)c3ccccc3o2)c1N | 79.9
69 | O=C1NC(=O)c2cc(Nc3ccc(F)cc3)c(Nc3ccc(F)cc3)cc21 | 93.2
70 | N#CCCc1ccc2c(c1)-c1[nH]c3ccc([N+](=O)[O-])cc3c1CC(=O)N2 | 75.4

biological target: CDK1 CCNB1 (human) (UniProt P06493+P14635); experiment: as above; conditions: compound 0.5 µM; ATP 10 µM

Row | SMILES | residual activity [%]
71 | COc1cc2c(cc1OC)-c1[nH]nc(Nc3cccc(F)c3)c1C2 | 101
72 | Cn1cc(/C=C2\C(=O)Nc3ccc(S(N)(=O)=O)cc32)c2ccccc21 | 49.6
73 | COc1cccc(-c2cc(=O)c3ccccc3o2)c1N | 99.8
74 | O=C1NC(=O)c2cc(Nc3ccc(F)cc3)c(Nc3ccc(F)cc3)cc21 | 103
75 | N#CCCc1ccc2c(c1)-c1[nH]c3ccc([N+](=O)[O-])cc3c1CC(=O)N2 | 9.89

biological target: SRMS (human) (UniProt Q9H3Y6); experiment: as above; conditions: compound 0.5 µM; ATP 10 µM
Sequence (Q9H3Y6 whole entry, looked up): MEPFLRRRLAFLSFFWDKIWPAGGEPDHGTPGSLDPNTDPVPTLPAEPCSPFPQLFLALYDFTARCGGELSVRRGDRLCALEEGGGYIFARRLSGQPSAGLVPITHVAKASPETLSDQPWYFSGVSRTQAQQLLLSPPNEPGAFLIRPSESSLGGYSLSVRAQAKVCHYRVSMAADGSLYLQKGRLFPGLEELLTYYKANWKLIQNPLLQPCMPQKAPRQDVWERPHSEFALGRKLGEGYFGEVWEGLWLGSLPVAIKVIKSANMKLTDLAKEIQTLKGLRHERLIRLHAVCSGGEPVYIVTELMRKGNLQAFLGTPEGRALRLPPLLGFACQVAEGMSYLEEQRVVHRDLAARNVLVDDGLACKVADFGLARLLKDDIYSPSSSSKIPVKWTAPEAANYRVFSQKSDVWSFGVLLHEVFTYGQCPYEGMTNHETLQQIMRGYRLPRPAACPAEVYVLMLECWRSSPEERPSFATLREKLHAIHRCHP

Row | SMILES | residual activity [%]
76 | COc1cc2c(cc1OC)-c1[nH]nc(Nc3cccc(F)c3)c1C2 | 99.9
77 | Cn1cc(/C=C2\C(=O)Nc3ccc(S(N)(=O)=O)cc32)c2ccccc21 | 99.8
78 | COc1cccc(-c2cc(=O)c3ccccc3o2)c1N | 104
79 | O=C1NC(=O)c2cc(Nc3ccc(F)cc3)c(Nc3ccc(F)cc3)cc21 | 95.5
80 | N#CCCc1ccc2c(c1)-c1[nH]c3ccc([N+](=O)[O-])cc3c1CC(=O)N2 | 78.6

biological target: TGFBR2 (human) (UniProt P37173); experiment: as above; conditions: compound 0.5 µM; ATP 10 µM
Sequence (P37173 whole entry, looked up): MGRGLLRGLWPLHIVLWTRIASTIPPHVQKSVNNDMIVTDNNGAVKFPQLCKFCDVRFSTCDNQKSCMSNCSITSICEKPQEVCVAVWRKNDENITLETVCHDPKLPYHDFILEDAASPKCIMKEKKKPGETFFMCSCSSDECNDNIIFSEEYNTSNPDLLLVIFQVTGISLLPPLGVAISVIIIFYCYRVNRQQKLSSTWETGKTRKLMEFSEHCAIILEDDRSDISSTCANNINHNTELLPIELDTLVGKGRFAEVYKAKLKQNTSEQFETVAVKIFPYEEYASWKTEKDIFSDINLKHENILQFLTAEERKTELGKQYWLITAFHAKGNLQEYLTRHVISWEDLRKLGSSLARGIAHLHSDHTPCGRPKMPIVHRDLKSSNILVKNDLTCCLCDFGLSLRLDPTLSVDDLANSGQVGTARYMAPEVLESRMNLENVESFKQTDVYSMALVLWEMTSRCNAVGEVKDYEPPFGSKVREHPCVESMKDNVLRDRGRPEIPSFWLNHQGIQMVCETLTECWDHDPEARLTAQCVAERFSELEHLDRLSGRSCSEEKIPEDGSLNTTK

Row | SMILES | residual activity [%]
81 | COc1cc2c(cc1OC)-c1[nH]nc(Nc3cccc(F)c3)c1C2 | 100
82 | Cn1cc(/C=C2\C(=O)Nc3ccc(S(N)(=O)=O)cc32)c2ccccc21 | 101
83 | COc1cccc(-c2cc(=O)c3ccccc3o2)c1N | 115
84 | O=C1NC(=O)c2cc(Nc3ccc(F)cc3)c(Nc3ccc(F)cc3)cc21 | 85.2
85 | N#CCCc1ccc2c(c1)-c1[nH]c3ccc([N+](=O)[O-])cc3c1CC(=O)N2 | 10.1

biological target: CSNK1G1 (human) (UniProt Q9HCP0); experiment: as above; conditions: compound 0.5 µM; ATP 10 µM
Sequence (Q9HCP0 whole entry, looked up): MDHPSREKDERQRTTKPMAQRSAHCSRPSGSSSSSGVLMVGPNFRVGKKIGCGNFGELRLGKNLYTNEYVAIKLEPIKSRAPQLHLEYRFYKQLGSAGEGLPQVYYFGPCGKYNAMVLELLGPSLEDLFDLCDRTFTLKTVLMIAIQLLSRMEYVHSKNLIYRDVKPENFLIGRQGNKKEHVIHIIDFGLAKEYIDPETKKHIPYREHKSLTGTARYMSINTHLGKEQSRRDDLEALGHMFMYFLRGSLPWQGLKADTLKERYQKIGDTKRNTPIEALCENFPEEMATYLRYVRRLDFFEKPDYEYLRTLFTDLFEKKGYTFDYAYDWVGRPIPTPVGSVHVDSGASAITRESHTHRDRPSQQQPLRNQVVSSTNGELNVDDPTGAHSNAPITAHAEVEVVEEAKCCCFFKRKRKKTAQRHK

Row | SMILES | residual activity [%]
86 | COc1cc2c(cc1OC)-c1[nH]nc(Nc3cccc(F)c3)c1C2 | 77.8
87 | Cn1cc(/C=C2\C(=O)Nc3ccc(S(N)(=O)=O)cc32)c2ccccc21 | 88.3
88 | COc1cccc(-c2cc(=O)c3ccccc3o2)c1N | 83.5
89 | O=C1NC(=O)c2cc(Nc3ccc(F)cc3)c(Nc3ccc(F)cc3)cc21 | 96.3
90 | N#CCCc1ccc2c(c1)-c1[nH]c3ccc([N+](=O)[O-])cc3c1CC(=O)N2 | 81.6

biological target: JAK2 JH1 JH2 (human) (UniProt O60674); experiment: as above; conditions: compound 0.5 µM; ATP 10 µM

Row | SMILES | residual activity [%]
91 | COc1cc2c(cc1OC)-c1[nH]nc(Nc3cccc(F)c3)c1C2 | 107
92 | Cn1cc(/C=C2\C(=O)Nc3ccc(S(N)(=O)=O)cc32)c2ccccc21 | 58.4
93 | COc1cccc(-c2cc(=O)c3ccccc3o2)c1N | 104
94 | O=C1NC(=O)c2cc(Nc3ccc(F)cc3)c(Nc3ccc(F)cc3)cc21 | 94.6
95 | N#CCCc1ccc2c(c1)-c1[nH]c3ccc([N+](=O)[O-])cc3c1CC(=O)N2 | 93

biological target: AKT1 (human) (UniProt P31749); experiment: as above; conditions: compound 0.5 µM; ATP 10 µM

Row | SMILES | residual activity [%]
96 | COc1cc2c(cc1OC)-c1[nH]nc(Nc3cccc(F)c3)c1C2 | 93.3
97 | Cn1cc(/C=C2\C(=O)Nc3ccc(S(N)(=O)=O)cc32)c2ccccc21 | 105
98 | COc1cccc(-c2cc(=O)c3ccccc3o2)c1N | 93.8
99 | O=C1NC(=O)c2cc(Nc3ccc(F)cc3)c(Nc3ccc(F)cc3)cc21 | 94.8
100 | N#CCCc1ccc2c(c1)-c1[nH]c3ccc([N+](=O)[O-])cc3c1CC(=O)N2 | 111

biological target: PRKX (human) (UniProt P51817); experiment: as above; conditions: compound 0.5 µM; ATP 10 µM

Row | SMILES | residual activity [%]
101 | COc1cc2c(cc1OC)-c1[nH]nc(Nc3cccc(F)c3)c1C2 | 103
102 | Cn1cc(/C=C2\C(=O)Nc3ccc(S(N)(=O)=O)cc32)c2ccccc21 | 81
